Reference: patent publication US20040242697A1, “Methods of reducing pests by use of iodoacetic acid, bromoacetic acid, 2-iodoacetamide, or 2-bromoacetamide” (priority 2003, published 2004)

Experiments:
[1] = tested on: Fusarium oxysporum f. sp. lycopersici (isolate FP-7) spores; assay: Fusarium tetrazolium (MTT) spore viability assay; assay type: cell-based; conditions: for concentration giving elimination of viable cells: 24 hr exposure, absorbance at 570 nm; for cell viability result compared with Benlate control: tetrazolium cell viability test
Method: (§1) The suspension was then standardized using a Beckman spectrophotometer (430 nm), which has been calibrated using a CDB blank. […] Suspensions were incubated for 24 hr at 28° C. A 10% stock solution of MTT was then added to each aliquot. The suspensions were allowed to incubate for 4 hr, then pelleted, drained, rinsed, and treated with 95% ethanol. The color change, which correlates with spore viability, was assessed using the Beckman spectrophotometer (570 nm), calibrated with 95% ethanol. Benlate (benomyl) was used as an industry standard control. Each treatment was replicated six times and the assay for each compound was repeated. […] A mycelial plug of (cork bore size #3) Fusarium oxysporum f. sp. lycopersici (isolate FP-7) from a 7-day old culture was placed at the center of the plate and the radial growth of the fungus was measured for 7-10 days. Each treatment was replicated six times and the assay for each compound was repeated. Regression analysis was performed using Sigma Plot 2000.
(§2) The tetrazolium assay is based on a color change produced with a vital stain on living tissue, i.e. the lower the absorbance, the fewer viable cells.

[2] = tested on: Fusarium oxysporum f. sp. lycopersici (isolate FP-7); assay: Fusarium petri plate (PDA) assay, radial growth; assay type: cell-based; conditions: for fungal growth elimination compared with Benlate control: PDA-based assay
Method: as §1, §2

[3] = tested on: purple nutsedge (Cyperus rotundus) tubers; assay: Nutsedge greenhouse assay, soil drench on tubers in pots; assay type: in vivo; conditions: 100 ml soil drench, tarped 7 days, shoots counted 60 days
Method: Herbicide Screen: Each candidate compound was tested on seeds of smooth pigweed (Amaranthus hybridus) and barnyard grass (Echinocloa crus-galli), and on tubers of purple nutsedge (Cyperus rotundus) by exposing seeds or tubers to a specific concentration of the test compound. Seeds were surface sterilized and 20 seeds placed on sterile filter paper (Whatman #5) in a 10-cm petri plate for each of six replicates for each weed species tested. Twenty ml of compound of concentrations ranging from 0 ppm (sterile water control) to 2000 ppm was added to the petri dishes. Plates were stored at 30° C. in an dark incubator. Seed germination was monitored at 24 hr intervals for 30 days. Petri plate bioassays were repeated twice for each compound. Field collected purple nutsedge tubers were placed in 500 g of field soil with soil moisture adjusted to 5%. Five nutsedge tubers were planted in each 10-cm pot at a depth of 2.5 cm. Six replicate pots of each concentration, ranging from 0 ppm (water control) to 2000 ppm, will be treated using 100 ml as a soil drench. Pots were tarped with co-extruded black-on-white polyethylene mulch for 7 days. After tarps were removed, the number of emerged nutsedge shoots was recorded on a weekly basis for 60 days.

[4] = tested on: nutsedge (Cyperus esculentus and C. rotundus); assay: Field study, weed biomass emerging through the plastic mulch; assay type: in vivo; conditions: pre-plant, tomato field, Florida
[5] = tested on: root knot nematode Meloidogyne sp.; assay: Field study, root knot nematode root galling on tomato; assay type: in vivo; conditions: 600 and 800 lb per acre, assessed at harvest; population unevenly distributed
[6] = tested on: native weed population (weeds in the plant hole); assay: Field study, weed biomass emerging in the planting hole; assay type: in vivo; conditions: pre-plant, tomato field, Florida

Row | SMILES | concentration giving elimination of viable cells [1] [ppm] | fungal growth elimination compared with Benlate control [2] | cell viability result compared with Benlate control [1] | other results
1 | CCCCNC(=O)n1c(NC(=O)OC)nc2ccccc21 [Benlate, benomyl, reference compound] | 100 |  |  | 
2 | NC(=O)CBr [bromoacetamide, 2-bromoacetamide] | 100 | significantly better than the Benlate control | comparable to a Benlate control | concentration eliminating germination of nutsedge [3]: ≥ 1000 ppm
3 | O=C(O)CI [iodoacetic acid] |  | comparable to the Benalte control |  | concentration at which fungal growth was eliminated ([2]; compound in potato dextrose agar, radial growth measured 7-10 days): ≥ 500 ppm
4 | O=C(O)CBr [bromoacetic acid] |  | significantly better than the Benlate control |  | control of nutsedge emerging through the plastic versus methyl bromide ([4]; 600 lb per acre): as effective as methyl bromide; control of nutsedge emerging through the plastic (fresh and dry weight) versus methyl bromide ([4]; 800 lb per acre): as effective as methyl bromide; root knot nematode control (root galling, scale 0-10) versus untreated check [5]: not statistically significantly different from the untreated check; control of weeds in the plant hole versus methyl bromide ([6]; 600 lb per acre): not as effective; control of weeds emerging in the plant hole (fresh and dry weight) versus methyl bromide ([6]; 800 lb per acre): as effective as methyl bromide
5 | NC(=O)CI [iodoacetamide, 2-iodoacetamide] | 100 | significantly better than the Benlate control | comparable to a Benlate control | 
